# Reference: paper PMC7956643, “Synthesis of Novel Pyrido[1,2-c]pyrimidine Derivatives with 6-Fluoro-3-(4-piperidynyl)-1,2-benzisoxazole Moiety as Potential SSRI and 5-HT1A Receptor Ligands” (International Journal of Molecular Sciences, 2021)
# Entries after “also recorded” stand apart in the source; their conditions may differ. Marks after values point to notes of the source that are not given here.
# Assays:
# 5-HT1A receptor [1] = molecular target: T1, 5-HT1A receptor (Mus musculus, UniProt Q64264); assay: Body temperature in mice (induced hypothermia); assay type: in vivo, CD-1 mice
# T1 construct: from tissue; host or cells: whole animal, male CD-1 mice
# T1 sequence (Q64264 1-421): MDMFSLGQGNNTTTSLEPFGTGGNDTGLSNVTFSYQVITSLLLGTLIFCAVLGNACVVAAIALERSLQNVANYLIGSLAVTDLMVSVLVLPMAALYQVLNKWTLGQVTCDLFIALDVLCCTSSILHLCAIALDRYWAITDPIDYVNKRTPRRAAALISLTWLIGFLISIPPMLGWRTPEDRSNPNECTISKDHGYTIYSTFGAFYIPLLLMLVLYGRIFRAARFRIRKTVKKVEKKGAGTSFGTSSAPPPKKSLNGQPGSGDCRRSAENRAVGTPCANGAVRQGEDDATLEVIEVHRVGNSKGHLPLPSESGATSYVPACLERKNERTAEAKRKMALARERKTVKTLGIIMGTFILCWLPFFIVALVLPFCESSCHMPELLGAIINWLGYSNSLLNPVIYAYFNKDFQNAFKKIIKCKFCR
# Procedure: (§1) The experiments were performed on male CD-1 mice (23–40 g). The animals were kept at room temperature (21 ± 2 °C) on a natural day-night cycle (March–October) and housed under standard laboratory conditions. They had free access to food and tap water before the experiment. Each experimental group consisted of 6–8 animals/dose. All the animals were used only once. 8-Hydroxy-2-(di-n-propylamino)tetralin hydro-bromide (8-OH-DPAT, Research Biochemical Inc.) was used as aqueous solution. […] Vehicle group was administered as 10% aqueous solution of dimethyl sulphoxide (DMSO). 8-OH-DPAT was injected subcutaneously (sc); 6a and 7g were given intraperitoneally (ip) in a volume of 10 mL/kg/mice. The obtained data were analyzed by Dunnett’s test (one drug administration) or by the Newman–Keuls test (two drugs administrations). Forced swim test: the obtained data was evaluated by one-way analysis of variance (ANOVA) followed by the Dunnett’s multiple comparisons test: p < 0.05 was considered significant.
# (§2) The results were expressed as a change in body temperature (Δt) with respect to the basal body temperature, as measured at the beginning of the experiment.
# 5-HT1A receptor [2] = molecular target: T1, 5-HT1A receptor; assay: Effect of WAY-100635 on the hypothermia induced by tested compounds; assay type: in vivo, CD-1 mice; details: mice
# Procedure: as §1, §2
# CD-1 mice = assay: Forced swim test in mice; assay type: in vivo; details: administered 30 min before test
# Procedure: All studies were performed according to the guidelines of the European Community Council (Directive 86/609/EEC) and were approved by the Ethical Committee of the Institute of Pharmacology (88/2016, 05/31/2016). The experiments were performed on male CD-1 mice (23–40 g). The animals were kept at room temperature (21 ± 2 °C) on a natural day-night cycle (March–October) and housed under standard laboratory conditions. They had free access to food and tap water before the experiment. Each experimental group consisted of 6–8 animals/dose. All the animals were used only once. 8-Hydroxy-2-(di-n-propylamino)tetralin hydro-bromide (8-OH-DPAT, Research Biochemical Inc.) was used as aqueous solution. Compounds 6a and 7g were suspended in a 10% aqueous solution of dimethyl sulphoxide (DMSO). Vehicle group was administered as 10% aqueous solution of dimethyl sulphoxide (DMSO). […] The obtained data were analyzed by Dunnett’s test (one drug administration) or by the Newman–Keuls test (two drugs administrations). Forced swim test: the obtained data was evaluated by one-way analysis of variance (ANOVA) followed by the Dunnett’s multiple comparisons test: p < 0.05 was considered significant.
# The forced swim test (FST) was carried out according to the method of Porsolt at al.. […] After the first 2 min adaptation period, the total duration of immobility was measured during the last 4 min test. […]
structure (smiles),measurement,setting,value
"O=c1c(-c2ccccc2)c2ccccn2c(=O)n1CCCCN1CCC(c2noc3cc(F)ccc23)CC1 [Compound 6a, 4-Phenyl-2-{4-[4-(6-fluoro-1,2-benzoxazol-3-yl)-1-piperidyl]butyl}-pyrido[1,2-c]pyrimidine-1,3-dione]",Functional 5-HT1A receptor activity profile,5-HT1A receptor [1]; concluded from induced hypothermia test in mice,presynaptic agonist of the 5-HT1A receptor; also recorded: presynaptic 5-HT1A agonistic activity
same,Induction of hypothermia in mice,5-HT1A receptor [1]; mice,induced hypothermia
same,"Δt ± SEM, body temperature","5-HT1A receptor [1]; mice, 0.6 mg/kg ip, 30 min",−1.0 ± 0.2 ^b °C
same,"Δt ± SEM, body temperature","5-HT1A receptor [1]; mice, 0.6 mg/kg ip, 60 min",−1.2 ± 0.1 ^b °C
same,"Δt ± SEM, body temperature","5-HT1A receptor [1]; mice, 0.6 mg/kg ip, 90 min",−0.9 ± 0.1 ^a °C
same,"Δt ± SEM, body temperature","5-HT1A receptor [1]; mice, 0.6 mg/kg ip, 120 min",−0.8 ± 0.2 ^a °C
same,"Δt ± SEM, body temperature","5-HT1A receptor [1]; mice, 1.25 mg/kg ip, 30 min",−1.7 ± 0.3 ^b °C
same,"Δt ± SEM, body temperature","5-HT1A receptor [1]; mice, 1.25 mg/kg ip, 60 min",−1.7 ± 0.3 ^b °C
same,"Δt ± SEM, body temperature","5-HT1A receptor [1]; mice, 1.25 mg/kg ip, 90 min",−1.6 ± 0.2 ^b °C
same,"Δt ± SEM, body temperature","5-HT1A receptor [1]; mice, 1.25 mg/kg ip, 120 min",−1.6 ± 0.3 ^b °C
same,"Δt ± SEM, body temperature","5-HT1A receptor [1]; mice, 2.5 mg/kg ip, 30 min",−1.6 ± 0.2 ^b °C
same,"Δt ± SEM, body temperature","5-HT1A receptor [1]; mice, 2.5 mg/kg ip, 60 min",−2.5 ± 0.3 ^b °C
same,"Δt ± SEM, body temperature","5-HT1A receptor [1]; mice, 2.5 mg/kg ip, 90 min",−2.4 ± 0.3 ^b °C
same,"Δt ± SEM, body temperature","5-HT1A receptor [1]; mice, 2.5 mg/kg ip, 120 min",−2.0 ± 0.2 ^b °C
same,"Δt ± SEM, body temperature","5-HT1A receptor [1]; mice, 5 mg/kg ip, 30 min",−2.0 ± 0.2 ^b °C
same,"Δt ± SEM, body temperature","5-HT1A receptor [1]; mice, 5 mg/kg ip, 60 min",−3.2 ± 0.5 ^b °C
same,"Δt ± SEM, body temperature","5-HT1A receptor [1]; mice, 5 mg/kg ip, 90 min",−3.1 ± 0.5 ^b °C
same,"Δt ± SEM, body temperature","5-HT1A receptor [1]; mice, 5 mg/kg ip, 120 min",−2.8 ± 0.5 ^b °C
same,"Δt ± SEM, body temperature","5-HT1A receptor [2]; WAY-100635 0.1 mg/kg sc 15 min before compound 0.6 mg/kg, 30 min","−0.5 ± 0.2 ^b,d °C"
same,"Δt ± SEM, body temperature","5-HT1A receptor [2]; WAY-100635 0.1 mg/kg sc 15 min before compound 0.6 mg/kg, 60 min","−0.4 ± 0.2 ^a,e °C"
same,Hypothermia induced by compound diminished by WAY-100635,"5-HT1A receptor [2]; WAY-100635 0.1 mg/kg, compound 0.6 mg/kg",50%
same,"Δt ± SEM, body temperature","5-HT1A receptor [2]; vehicle + compound 0.6 mg/kg, 30 min",−1.0 ± 0.2 ^c °C
same,"Δt ± SEM, body temperature","5-HT1A receptor [2]; vehicle + compound 0.6 mg/kg, 60 min",−1.2 ± 0.1 ^c °C
same,Effect in the forced swimming test,CD-1 mice,inactivity; also recorded: ineffective
